Values of other authors as cited in patent US20140004177A1, “COX-2 INHIBITORS AND RELATED COMPOUNDS, AND SYSTEMS AND METHODS FOR DELIVERY THEREOF” (Strategic Science & Technologies, LLC, priority 2010, published 2014).

In the case of `CS(=O)(=O)c1ccc(C2=C(c3ccccc3)C(=O)OC2)cc1` [rofecoxib], the pKa is listed as 19.7.
